Results from patent publication US12427215B2, “Endoscope disinfectant” (Whiteley Corporation Pty Ltd, priority 2019, dated 2025).

Test: Solubility of surfactants in the base formulation of Example 12
Format: physicochemical
Details: base solution of water, dipotassium hydrogen phosphate, potassium hydroxide, benzotriazole; without hydrotrope
Method: A base solution comprising 907.77 g deionised water, 46.22 g of anhydrous dipotassium hydrogen phosphate, 30.98 g of 48% w/w potassium hydroxide solution and 10.36 g benzotriazole was prepared. In the case of Surfadone LP100 and Makon NF12, these surfactants were insoluble in the base formulation, and so were solublised using the hydrotrope, Triton H66 (see formulations 12-D and 12-F).

SMILES: CCCCCCCCN1CCCC1=O [Surfadone LP100, N-octyl-2-pyrrolidone]
- solubility in the base formulation: insoluble
